Target: T1, human Werner helicase (WRN-BV08, Uniprot Q14191, amino acids 517-1235 with L1074F point mutation) (Homo sapiens, UniProt Q14191, L1074F)
T1 construct: Uniprot Q14191, amino acids 517-1235 with L1074F point mutation; TEV-cleavable 8×His (C, cleaved yes); made in house; host or cells: Sf9 insect cells (baculovirus)
Assay: WRN (BV08) ADP-Glo Assay
Type: biochemical
Conditions: 0.15 nM WRN, 5 μM ATP, 0.1 nM DNA duplex, 15 min preincubation, 60 min at 25° C., pH 7.5, 1% DMSO; read-out: ADP-Glo_hWRN_IC50
Method in brief: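 Untagged WRN (Sf9-expressed, TEV-cleaved) at 0.15 nM was preincubated 15 min at 25 °C with compound, then reacted 60 min at 25 °C with 5 μM ATP and 0.1 nM DNA duplex in Bicine pH 7.5, 1 mM MgCl2. ADP-Glo luminescence gave % inhibition; IC50 by four-parameter fit.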

T1 sequence (Q14191 with tags, fused parts or gaps L1074F limits assumed): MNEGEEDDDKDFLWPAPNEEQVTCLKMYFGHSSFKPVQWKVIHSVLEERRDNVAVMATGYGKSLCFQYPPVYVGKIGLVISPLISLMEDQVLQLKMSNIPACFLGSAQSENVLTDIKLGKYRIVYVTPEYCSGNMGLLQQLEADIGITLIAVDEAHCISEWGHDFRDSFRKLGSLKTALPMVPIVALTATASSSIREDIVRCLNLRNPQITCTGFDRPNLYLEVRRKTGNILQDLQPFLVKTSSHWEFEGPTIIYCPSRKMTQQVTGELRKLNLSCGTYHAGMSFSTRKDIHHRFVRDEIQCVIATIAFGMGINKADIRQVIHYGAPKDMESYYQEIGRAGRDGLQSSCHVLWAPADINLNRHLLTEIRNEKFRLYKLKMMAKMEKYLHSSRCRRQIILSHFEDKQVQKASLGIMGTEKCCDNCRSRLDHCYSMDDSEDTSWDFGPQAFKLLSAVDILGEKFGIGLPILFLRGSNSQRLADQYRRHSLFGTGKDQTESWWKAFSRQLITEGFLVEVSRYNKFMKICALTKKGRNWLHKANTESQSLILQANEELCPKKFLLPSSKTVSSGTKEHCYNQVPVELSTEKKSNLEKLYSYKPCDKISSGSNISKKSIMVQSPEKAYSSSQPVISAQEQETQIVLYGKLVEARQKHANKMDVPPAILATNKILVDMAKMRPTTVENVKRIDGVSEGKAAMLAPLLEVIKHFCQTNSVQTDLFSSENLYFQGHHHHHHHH

Structure (SMILES)	IC50
CSC(C(=O)N(Cc1ccnc(C(C)(C)O)c1)C1C=CS(=O)(=O)C1)c1ccc(-c2ccc(F)c(F)c2)cc1F (stereo not drawn) [I-36, N-(1,1-dioxido-2,3-dihydrothiophen-3-yl)-N-((2-(2-hydroxypropan-2-yl)pyridin-4-yl)methyl)-2-(methylthio)-2-(3,3′,4′-trifluoro-[1,1′-biphenyl]-4-yl)acetamide]	< 0.5 µM
CN(C)C(=O)C(C(=O)N(Cc1ccnc(C(C)(C)O)c1)C1C=CS(=O)(=O)C1)c1ccc(-c2ccc(F)cc2)cc1 (single isomer, unassigned) [I-8, N1-(-1,1-dioxido-2,3-dihydrothiophen-3-yl)-2-(4′-fluoro-[1,1′-biphenyl]-4-yl)-N1-((2-(2-hydroxypropan-2-yl)pyridin-4-yl)methyl)-N3,N3-dimethylmalonamide]	< 0.5 µM
COc1cc(CN(C(=O)Cc2ccc(-n3cccc3C)cc2F)C2C=CS(=O)(=O)C2)ccn1 (stereo not drawn) [I-69, N-(1,1-dioxo-2,3-dihydro-1lambda6-thiophen-3-yl)-2-[2-fluoro-4-(2-methyl-1H-pyrrol-1-yl)phenyl]-N-[(2-methoxypyridin-4-yl)methyl]acetamide]	< 0.5 µM
O=C(Cc1ccc(C23CC(C2)C3)cc1)N(Cc1ccncc1)C1C=CS(=O)(=O)C1 (stereo not drawn) [I-347, 2-(4-{bicyclo[1.1.1]pentan-1-yl}phenyl)-N-(1,1-dioxo-2,3-dihydro-1lambda6-thiophen-3-yl)-N-[(pyridin-4-yl)methyl]acetamide]	10 to 50 µM
O=C(Cc1ccc(-n2cccc2)cc1)N(Cc1ccncc1)C1C=CS(=O)(=O)C1 (stereo not drawn) [I-239, N-(1,1-dioxo-2,3-dihydro-1lambda6-thiophen-3-yl)-N-[(pyridin-4-yl)methyl]-2-[4-(1H-pyrrol-1-yl)phenyl]acetamide]	5 to 10 µM
COc1cc(CN(C(=O)Cc2cnn(-c3ccc(Cl)cc3)c2)C2C=CS(=O)(=O)C2)ccn1 (stereo not drawn) [I-379, 2-[1-(4-chlorophenyl)-1H-pyrazol-4-yl]-N-(1,1-dioxo-2,3-dihydro-1lambda6-thiophen-3-yl)-N-[(2-methoxypyridin-4-yl)methyl]acetamide]	> 50 µM
COc1ccc(CN(C(=O)Cc2ccc(-n3cccc3)cc2)C2C=CS(=O)(=O)C2)cc1OC (stereo not drawn) [I-280, N-[(3,4-dimethoxyphenyl)methyl]-N-(1,1-dioxo-2,3-dihydro-1lambda6-thiophen-3-yl)-2-[4-(1H-pyrrol-1-yl)phenyl]acetamide]	10 to 50 µM
CN(C)Cc1cccn1-c1ccc(CC(=O)N(Cc2ccccc2)C2C=CS(=O)(=O)C2)cc1 (stereo not drawn) [I-567, N-benzyl-2-(4-{2-[(dimethylamino)methyl]-1H-pyrrol-1-yl}phenyl)-N-(1,1-dioxo-2,3-dihydro-1lambda6-thiophen-3-yl)acetamide]	> 50 µM
O=C(Cc1ccc(-n2cccc2)cc1)N(Cc1nc2c(s1)COCC2)C1C=CS(=O)(=O)C1 (stereo not drawn) [I-178, N-(1,1-dioxo-2,3-dihydro-1lambda6-thiophen-3-yl)-N-({4H,6H,7H-pyrano[4,3-d][1,3]thiazol-2-yl}methyl)-2-[4-(1H-pyrrol-1-yl)phenyl]acetamide]	0.5 to 5 µM
CN(C)C(=O)C(C(=O)N(Cc1ccnc(C(C)(C)O)c1)C1C=CS(=O)(=O)C1)c1ccc(-c2ccc(F)cc2)cc1 (single isomer, unassigned) [I-264, (2R**)-N-[(3R*)-1,1-dioxo-2,3-dihydro-1lambda6-thiophen-3-yl]-2-{4′-fluoro-[1,1′-biphenyl]-4-yl}-N-{[2-(2-hydroxypropan-2-yl)pyridin-4-yl]methyl}-N′,N′-dimethylpropanediamide]	5 to 10 µM
CC(C)(O)c1cc(CN(C(=O)Cc2ncc(-c3ccc(F)c(F)c3)cn2)C2C=CS(=O)(=O)C2)ccn1 (stereo not drawn) [I-116, 2-[5-(3,4-difluorophenyl)pyrimidin-2-yl]-N-(1,1-dioxo-2,3-dihydro-1lambda6-thiophen-3-yl)-N-{[2-(2-hydroxypropan-2-yl)pyridin-4-yl]methyl}acetamide]	0.5 to 5 µM
Cc1cccn1-c1ccc(CC(=O)N(Cc2ccc(Br)cc2)C2C=CS(=O)(=O)C2)c(F)c1 (stereo not drawn) [I-100, N-[(4-bromophenyl)methyl]-N-(1,1-dioxo-2,3-dihydro-1lambda6-thiophen-3-yl)-2-[2-fluoro-4-(2-methyl-1H-pyrrol-1-yl)phenyl]acetamide]	0.5 to 5 µM
COc1cc(CN(C(=O)Cc2ccc(C(F)(F)F)cc2)C2C=CS(=O)(=O)C2)ccn1 (single isomer, unassigned) [I-382]	> 50 µM
O=C(CC1CCN(c2ccccc2)CC1)N(Cc1ccncc1)C1C=CS(=O)(=O)C1 (stereo not drawn) [I-552, N-(1,1-dioxo-2,3-dihydro-1lambda6-thiophen-3-yl)-2-(1-phenylpiperidin-4-yl)-N-[(pyridin-4-yl)methyl]acetamide]	> 50 µM
O=C1CC(c2ccc(F)cc2)CCN1CC(=O)N(Cc1ccncc1)C1C=CS(=O)(=O)C1 (stereo not drawn) [I-457, N-(1,1-dioxo-2,3-dihydro-1lambda6-thiophen-3-yl)-2-[4-(4-fluorophenyl)-2-oxopiperidin-1-yl]-N-[(pyridin-4-yl)methyl]acetamide]	> 50 µM
CC(C)(O)c1cc(CN(C(=O)Cc2ccc(-c3ccc(F)c(F)c3)cc2F)C2C=CS(=O)(=O)C2)ccn1 (single isomer, unassigned) [I-332]	10 to 50 µM
O=C(Cc1ccc(N2CC(F)(F)C2)cc1)N(Cc1ccncc1)C1C=CS(=O)(=O)C1 (stereo not drawn) [I-482, 2-[4-(3,3-difluoroazetidin-1-yl)phenyl]-N-(1,1-dioxo-2,3-dihydro-1lambda6-thiophen-3-yl)-N-[(pyridin-4-yl)methyl]acetamide]	> 50 µM
CC(C)(O)c1cc(CN(C(=O)Cn2cc(-c3ccc(Cl)cc3)cn2)C2C=CS(=O)(=O)C2)ccn1 (stereo not drawn) [I-58, 2-[4-(4-chlorophenyl)-1H-pyrazol-1-yl]-N-(1,1-dioxo-2,3-dihydro-1lambda6-thiophen-3-yl)-N-{[2-(2-hydroxypropan-2-yl)pyridin-4-yl]methyl}acetamide]	< 0.5 µM
CN(C)C(=O)C(C(=O)N(Cc1ccnc(C(C)(C)O)c1)C1C=CS(=O)(=O)C1)c1ccc(-c2ccc(F)cc2)cc1F (single isomer, unassigned) [I-237, (2R**)-2-{3,4′-difluoro-[1,1′-biphenyl]-4-yl}-N-[(3R*)-1,1-dioxo-2,3-dihydro-1lambda6-thiophen-3-yl]-N-{[2-(2-hydroxypropan-2-yl)pyridin-4-yl]methyl}-N′,N′-dimethylpropanediamide]	5 to 10 µM
O=C(Cc1ccc(-n2cccc2)cc1)N(Cc1ccc2c(c1)OCO2)C1C=CS(=O)(=O)C1 (stereo not drawn) [I-225, N-[(2H-1,3-benzodioxol-5-yl)methyl]-N-(1,1-dioxo-2,3-dihydro-1lambda6-thiophen-3-yl)-2-[4-(1H-pyrrol-1-yl)phenyl]acetamide]	5 to 10 µM

Now from value to molecule:

IC50	Structure (SMILES)
< 0.5 µM	COc1cc(CN(C(=O)C(c2ccc(-c3ccc(F)c(F)c3)cc2F)n2cc(C(F)F)cn2)[C@@H]2C=CS(=O)(=O)C2)ccn1 (single isomer, unassigned) [I-701, (2R*)-2-[4-(difluoromethyl)-1H-pyrazol-1-yl]-N-[(3R)-1,1-dioxo-2,3-dihydro-1lambda6-thiophen-3-yl]-N-[(2-methoxypyridin-4-yl)methyl]-2-{3,3′,4′-trifluoro-[1,1′-biphenyl]-4-yl}acetamide]
> 50 µM	O=C(C1CC(c2ccncc2)=NO1)N(Cc1ccncc1)C1C=CS(=O)(=O)C1 (stereo not drawn) [I-621, N-(1,1-dioxo-2,3-dihydro-1lambda6-thiophen-3-yl)-3-(pyridin-4-yl)-N-[(pyridin-4-yl)methyl]-4,5-dihydro-1,2-oxazole-5-carboxamide]
< 0.5 µM	CC(C)(O)c1cc(CN(C(=O)Cc2ccc(OC(F)(F)C(F)(F)F)cc2)C2C=CS(=O)(=O)C2)ccn1 (single isomer, unassigned) [I-661]
< 0.5 µM	CC(C(=O)N(Cc1ccnc(C(C)(C)O)c1)[C@@H]1C=CS(=O)(=O)C1)n1ccc(-c2ccc(F)c(F)c2)cc1=O (single isomer, unassigned) [I-769]
< 0.5 µM	CC(C)(O)c1cc(CN(C(=O)C(OCC2CC2)c2ccc(-c3ccc(F)c(F)c3)cc2F)[C@@H]2C=CS(=O)(=O)C2)ccn1 (single isomer, unassigned) [I-815]
> 50 µM	O=C(Cn1c(=O)n(C2=CCCCC2)c2ccccc21)N(Cc1ccncc1)C1C=CS(=O)(=O)C1 (stereo not drawn) [I-680, 2-[3-(cyclohex-1-en-1-yl)-2-oxo-2,3-dihydro-1H-1,3-benzodiazol-1-yl]-N-(1,1-dioxo-2,3-dihydro-1lambda6-thiophen-3-yl)-N-[(pyridin-4-yl)methyl]acetamide]
0.5 to 5 µM	CC(C)(O)c1csc(CN(C(=O)Cn2cc(-c3cc(F)c(F)c(F)c3)cn2)C2C=CS(=O)(=O)C2)n1 (single isomer, unassigned) [I-799]
0.5 to 5 µM	CC(C)(N)c1ccc(CN(C(=O)Cn2cc(-c3ccc(F)c(F)c3)cn2)C2C=CS(=O)(=O)C2)cc1 (stereo not drawn) [I-795, N-{[4-(2-aminopropan-2-yl)phenyl]methyl}-2-[4-(3,4-difluorophenyl)-1H-pyrazol-1-yl]-N-(1,1-dioxo-2,3-dihydro-1lambda6-thiophen-3-yl)acetamide]
< 0.5 µM	COc1cc(CN(C(=O)C(c2ccc(-c3ccc(F)c(F)c3)cc2F)n2ccnn2)[C@@H]2C=CS(=O)(=O)C2)ccn1 (stereo partly drawn) [I-732, N-[(3R)-1,1-dioxo-2,3-dihydro-1lambda6-thiophen-3-yl]-N-[(2-methoxypyridin-4-yl)methyl]-2-(1H-1,2,3-triazol-1-yl)-2-{3,3′,4′-trifluoro-[1,1′-biphenyl]-4-yl}acetamide]
0.5 to 5 µM	O=C(Cc1ccc(S(F)(F)(F)(F)F)cc1)N(Cc1ccnc(OC(F)(F)F)c1)C1C=CS(=O)(=O)C1 (stereo not drawn) [I-725, N-(1,1-dioxo-2,3-dihydro-1lambda6-thiophen-3-yl)-2-[4-(pentafluoro-lambda6-sulfanyl)phenyl]-N-{[2-(trifluoromethoxy)pyridin-4-yl]methyl}acetamide]
